How the values were obtained:
blackgrass [1] = assay: Test A preemergence; type: in vivo, Alopecurus myosuroides
Summary of the method: (§1)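 Seeds in loam–sand blend received a directed preemergence soil spray of compound in non-phytotoxic solvent with surfactant; postemergence plants (2–10 cm, one- to two-leaf stage) were sprayed with the same formulation. After 10 days in greenhouse, injury was rated visually versus untreated controls, 0 (no effect) to 100 (complete control).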

corn [2] = assay: Test A preemergence; type: in vivo, Zea mays
Summary of the method: as §1

foxtail, giant [3] = assay: Test A preemergence; type: in vivo, Setaria faberi
Summary of the method: as §1

goosegrass [4] = assay: Test A preemergence; type: in vivo, Eleusine indica
Summary of the method: as §1

kochia [5] = assay: Test A preemergence; type: in vivo, Bassia scoparia
Summary of the method: as §1

oat, wild [6] = assay: Test A preemergence; type: in vivo, Avena fatua
Summary of the method: as §1

pigweed, palmer [7] = assay: Test A preemergence; type: in vivo, Amaranthus palmeri
Summary of the method: as §1

ragweed [8] = assay: Test A preemergence; type: in vivo, Ambrosia artemisiifolia
Summary of the method: as §1

ryegrass, Italian [9] = assay: Test A preemergence; type: in vivo, Lolium multiflorum
Summary of the method: as §1

soybean [10] = assay: Test A preemergence; type: in vivo, Glycine max
Summary of the method: as §1

wheat [11] = assay: Test A preemergence; type: in vivo, Triticum aestivum
Summary of the method: as §1

blackgrass [12] = assay: Test A postemergence; type: in vivo, Alopecurus myosuroides; conditions: postemergence, 10 days; for Blackgrass plant response rating: 125 g ai/ha, 0 to 100 scale, 0 no effect, 100 complete control; for Plant response rating, Blackgrass: 500 g ai/ha, visual injury, 0 to 100 scale (0 no effect, 100 complete control)
Summary of the method: as §1

corn [13] = assay: Test A postemergence; type: in vivo, Zea mays; conditions: postemergence, 10 days; for Corn plant response rating: 125 g ai/ha, 0 to 100 scale, 0 no effect, 100 complete control; for Plant response rating, Corn: 500 g ai/ha, visual injury, 0 to 100 scale (0 no effect, 100 complete control)
Summary of the method: as §1

foxtail, giant [14] = assay: Test A postemergence; type: in vivo, Setaria faberi; conditions: postemergence, 10 days; for Foxtail, Giant plant response rating: 125 g ai/ha, 0 to 100 scale, 0 no effect, 100 complete control; for Plant response rating, Foxtail, Giant: 500 g ai/ha, visual injury, 0 to 100 scale (0 no effect, 100 complete control)
Summary of the method: as §1

goosegrass [15] = assay: Test A postemergence; type: in vivo, Eleusine indica; conditions: postemergence, 10 days; for Goosegrass plant response rating: 125 g ai/ha, 0 to 100 scale, 0 no effect, 100 complete control; for Plant response rating, Goosegrass: 500 g ai/ha, visual injury, 0 to 100 scale (0 no effect, 100 complete control)
Summary of the method: as §1

kochia [16] = assay: Test A postemergence; type: in vivo, Bassia scoparia; conditions: postemergence, 10 days; for Kochia plant response rating: 125 g ai/ha, 0 to 100 scale, 0 no effect, 100 complete control; for Plant response rating, Kochia: 500 g ai/ha, visual injury, 0 to 100 scale (0 no effect, 100 complete control)
Summary of the method: as §1

oat, wild [17] = assay: Test A postemergence; type: in vivo, Avena fatua; conditions: postemergence, 10 days; for Oat, Wild plant response rating: 125 g ai/ha, 0 to 100 scale, 0 no effect, 100 complete control; for Plant response rating, Oat, Wild: 500 g ai/ha, visual injury, 0 to 100 scale (0 no effect, 100 complete control)
Summary of the method: as §1

pigweed, palmer [18] = assay: Test A postemergence; type: in vivo, Amaranthus palmeri; conditions: postemergence, 10 days; for Pigweed, Palmer plant response rating: 125 g ai/ha, 0 to 100 scale, 0 no effect, 100 complete control; for Plant response rating, Pigweed, Palmer: 500 g ai/ha, visual injury, 0 to 100 scale (0 no effect, 100 complete control)
Summary of the method: as §1

ragweed [19] = assay: Test A postemergence; type: in vivo, Ambrosia artemisiifolia; conditions: postemergence, 10 days; for Ragweed plant response rating: 125 g ai/ha, 0 to 100 scale, 0 no effect, 100 complete control; for Plant response rating, Ragweed: 500 g ai/ha, visual injury, 0 to 100 scale (0 no effect, 100 complete control)
Summary of the method: as §1

ryegrass, Italian [20] = assay: Test A postemergence; type: in vivo, Lolium multiflorum; conditions: postemergence, 10 days; for Ryegrass, Italian plant response rating: 125 g ai/ha, 0 to 100 scale, 0 no effect, 100 complete control; for Plant response rating, Ryegrass, Italian: 500 g ai/ha, visual injury, 0 to 100 scale (0 no effect, 100 complete control)
Summary of the method: as §1

soybean [21] = assay: Test A postemergence; type: in vivo, Glycine max; conditions: postemergence, 10 days; for Soybean plant response rating: 125 g ai/ha, 0 to 100 scale, 0 no effect, 100 complete control; for Plant response rating, Soybean: 500 g ai/ha, visual injury, 0 to 100 scale (0 no effect, 100 complete control)
Summary of the method: as §1

wheat [22] = assay: Test A postemergence; type: in vivo, Triticum aestivum; conditions: postemergence, 10 days; for Wheat plant response rating: 125 g ai/ha, 0 to 100 scale, 0 no effect, 100 complete control; for Plant response rating, Wheat: 500 g ai/ha, visual injury, 0 to 100 scale (0 no effect, 100 complete control)
Summary of the method: as §1

horseweed = assay: Test A postemergence; type: in vivo, Erigeron canadensis; conditions: postemergence, 10 days; for Horseweed plant response rating: 125 g ai/ha, 0 to 100 scale, 0 no effect, 100 complete control; for Plant response rating, Horseweed: 500 g ai/ha, visual injury, 0 to 100 scale (0 no effect, 100 complete control)
Summary of the method: as §1

barnyardgrass = assay: Test B flooded paddy test; type: in vivo, Echinochloa crus-galli; conditions: 250 g ai/ha, Flood, 13 days, 0 to 100 scale (0 no effect, 100 complete control)
Summary of the method: (§2)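 Flooded to 3 cm at treatment time, 2-leaf plants got the test compound applied straight into the paddy water. They then stayed under constant flood in a greenhouse for 13 days. Ratings used a 0 to 100 visual scale.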

ducksalad = assay: Test B flooded paddy test; type: in vivo, Heteranthera limosa; conditions: 250 g ai/ha, Flood, 13 days, 0 to 100 scale (0 no effect, 100 complete control)
Summary of the method: as §2

rice = assay: Test B flooded paddy test; type: in vivo, Oryza sativa; conditions: 250 g ai/ha, Flood, 13 days, 0 to 100 scale (0 no effect, 100 complete control)
Summary of the method: as §2

sedge, umbrella = assay: Test B flooded paddy test; type: in vivo, Cyperus difformis; conditions: 250 g ai/ha, Flood, 13 days, 0 to 100 scale (0 no effect, 100 complete control)
Summary of the method: as §2

[23] = 125 g ai/ha, visual injury after 10 days, 0 to 100 scale, 0 is no effect, 100 is complete control
[24] = 500 g ai/ha, 0 to 100 scale (0 no effect, 100 complete control), 10 days

## C[C@H]1CN(C(=O)c2cccc(-n3cnc(Br)n3)c2)c2cccc(Cl)c2O1 [Compound 85]
Blackgrass [1]; [23]
  Plant response rating, Blackgrass: 0
Blackgrass [1]; [24]
  Plant response rating, Blackgrass: 30
Corn [2]; [23]
  Plant response rating, Corn: 0
Corn [2]; [24]
  Plant response rating, Corn: 0
foxtail, giant [3]; [23]
  Plant response rating, Foxtail, Giant: 30
foxtail, giant [3]; [24]
  Plant response rating, Foxtail, Giant: 90
Goosegrass [4]; [23]
  Plant response rating, Goosegrass: 80
Goosegrass [4]; [24]
  Plant response rating, Goosegrass: 100
Kochia [5]; [23]
  Plant response rating, Kochia: 20
Kochia [5]; [24]
  Plant response rating, Kochia: 80
oat, wild [6]; [23]
  Plant response rating, Oat, Wild: 0
oat, wild [6]; [24]
  Plant response rating, Oat, Wild: 10
pigweed, palmer [7]; [23]
  Plant response rating, Pigweed, Palmer: 70
pigweed, palmer [7]; [24]
  Plant response rating, Pigweed, Palmer: 60
Ragweed [8]; [23]
  Plant response rating, Ragweed: 0
Ragweed [8]; [24]
  Plant response rating, Ragweed: 0
ryegrass, Italian [9]; [23]
  Plant response rating, Ryegrass, Italian: 90
ryegrass, Italian [9]; [24]
  Plant response rating, Ryegrass, Italian: 90
Soybean [10]; [23]
  Plant response rating, Soybean: 0
Soybean [10]; [24]
  Plant response rating, Soybean: 0
Wheat [11]; [23]
  Plant response rating, Wheat: 0
Wheat [11]; [24]
  Plant response rating, Wheat: 0
Blackgrass [12]
  Blackgrass plant response rating: 30
  Plant response rating, Blackgrass: 50
Corn [13]
  Corn plant response rating: 10
  Plant response rating, Corn: 10
foxtail, giant [14]
  Foxtail, Giant plant response rating: 20
  Plant response rating, Foxtail, Giant: 40
Goosegrass [15]
  Goosegrass plant response rating: 0
  Plant response rating, Goosegrass: 30
Kochia [16]
  Kochia plant response rating: 60
  Plant response rating, Kochia: 90
oat, wild [17]
  Oat, Wild plant response rating: 20
  Plant response rating, Oat, Wild: 30
pigweed, palmer [18]
  Pigweed, Palmer plant response rating: 70
  Plant response rating, Pigweed, Palmer: 80
Ragweed [19]
  Ragweed plant response rating: 0
  Plant response rating, Ragweed: 20
ryegrass, Italian [20]
  Ryegrass, Italian plant response rating: 10
  Plant response rating, Ryegrass, Italian: 70
Soybean [21]
  Soybean plant response rating: 100
  Plant response rating, Soybean: 100
Wheat [22]
  Wheat plant response rating: 0
  Plant response rating, Wheat: 10
horseweed
  Horseweed plant response rating: 20
  Plant response rating, Horseweed: 50
barnyardgrass
  Plant response rating, Barnyardgrass: 0
ducksalad
  Plant response rating, Ducksalad: 0
rice
  Plant response rating, Rice: 0
sedge, umbrella
  Plant response rating, Sedge, Umbrella: 0

## COc1ccc(-n2cnc(C(C)(C)C)n2)cc1C(=O)N1C[C@H](C)Oc2c(Cl)cccc21 [Compound 83]
Blackgrass [1]; [23]
  Plant response rating, Blackgrass: 40
Blackgrass [1]; [24]
  Plant response rating, Blackgrass: 50
Corn [2]; [23]
  Plant response rating, Corn: 0
Corn [2]; [24]
  Plant response rating, Corn: 20
foxtail, giant [3]; [23]
  Plant response rating, Foxtail, Giant: 100
foxtail, giant [3]; [24]
  Plant response rating, Foxtail, Giant: 100
Goosegrass [4]; [23]
  Plant response rating, Goosegrass: 100
Goosegrass [4]; [24]
  Plant response rating, Goosegrass: 100
Kochia [5]; [23]
  Plant response rating, Kochia: 90
Kochia [5]; [24]
  Plant response rating, Kochia: 100
oat, wild [6]; [23]
  Plant response rating, Oat, Wild: 90
oat, wild [6]; [24]
  Plant response rating, Oat, Wild: 90
pigweed, palmer [7]; [23]
  Plant response rating, Pigweed, Palmer: 100
pigweed, palmer [7]; [24]
  Plant response rating, Pigweed, Palmer: 100
Ragweed [8]; [23]
  Plant response rating, Ragweed: 50
Ragweed [8]; [24]
  Plant response rating, Ragweed: 90
ryegrass, Italian [9]; [23]
  Plant response rating, Ryegrass, Italian: 100
ryegrass, Italian [9]; [24]
  Plant response rating, Ryegrass, Italian: 100
Soybean [10]; [23]
  Plant response rating, Soybean: 50
Soybean [10]; [24]
  Plant response rating, Soybean: 100
Wheat [11]; [23]
  Plant response rating, Wheat: 10
Wheat [11]; [24]
  Plant response rating, Wheat: 90
Blackgrass [12]
  Blackgrass plant response rating: 10
  Plant response rating, Blackgrass: 60
Corn [13]
  Corn plant response rating: 30
  Plant response rating, Corn: 50
foxtail, giant [14]
  Foxtail, Giant plant response rating: 20
  Plant response rating, Foxtail, Giant: 90
Goosegrass [15]
  Goosegrass plant response rating: 70
  Plant response rating, Goosegrass: 100
Kochia [16]
  Kochia plant response rating: 100
  Plant response rating, Kochia: 100
oat, wild [17]
  Oat, Wild plant response rating: 20
  Plant response rating, Oat, Wild: 70
pigweed, palmer [18]
  Pigweed, Palmer plant response rating: 100
  Plant response rating, Pigweed, Palmer: 90
Ragweed [19]
  Ragweed plant response rating: 70
  Plant response rating, Ragweed: 100
ryegrass, Italian [20]
  Ryegrass, Italian plant response rating: 40
  Plant response rating, Ryegrass, Italian: 100
Soybean [21]
  Soybean plant response rating: 100
  Plant response rating, Soybean: 100
Wheat [22]
  Wheat plant response rating: 10
  Plant response rating, Wheat: 40
horseweed
  Horseweed plant response rating: 40
  Plant response rating, Horseweed: 40
barnyardgrass
  Plant response rating, Barnyardgrass: 40
ducksalad
  Plant response rating, Ducksalad: 30
rice
  Plant response rating, Rice: 0
sedge, umbrella
  Plant response rating, Sedge, Umbrella: 100

Reference: patent publication US20260262643A1, “HERBICIDAL BENZOXAZINES” (FMC CORPORATION, priority 2022, published 2026)
